# Experimental data reported in the supplement of paper PMC10307832.
# Legend:
# Assay in all cases: relative viability (nuclei count vs DMSO), 5 days (fraction); higher = more cells survive
# [1] = compound: COc1cc(N2CCC(N3CCN(C)CC3)CC2)ccc1Nc1ncc(Cl)c(Nc2ccccc2S(=O)(=O)C(C)C)n1 [NVP-TAE684] + Nc1ncn([C@H]2C[C@H](O)[C@@H](CO)O2)c(=O)n1 [Decitabine] (partner 2 µM)
# How it was run: (§1)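 Cells from lung cancer lines were seeded into 1536-well plates and, one day later, dosed by pin tool. Treatments were either a single drug or a fixed dose of an anchor drug with five library-drug doses (not always all listed) in √10 steps. After 5 days, nuclei were stained in a one-step fixation (final 0.05% Triton X-100, 1% formaldehyde, 1 ug/ml Hoechst) and counted on 4× images, and relative viability is the treated-to-vehicle nuclei ratio, as the median of duplicate plates.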
# [2] = compound: COc1cc2/c(=N/c3ccc(Br)cc3F)nc[nH]c2cc1OCC1CCN(C)CC1 [Vandetanib] + Nc1nc2[nH]cc(CCc3ccc(C(=O)N[C@@H](CCC(=O)O)C(=O)O)cc3)c2c(=O)[nH]1 [Pemetrexed] (partner 0.2 µM)
# How it was run: as §1
# [3] = compound: C1=CC=C2C(=C1)N=C(S2)C(C#N)C3=NC(=NC=C3)NCCC4=CN=CC=C4 + CC(C)C[C@H](NC(=O)[C@H](Cc1ccccc1)NC(=O)c1cnccn1)B(O)O [Bortezomib] (partner 0.002 µM)
# How it was run: as §1
# [4] = compound: C#Cc1cccc(Nc2ncnc3cc(OC)c(OCCCCCCC(=O)NO)cc23)c1 [CUDC-101] + NC(=O)Nc1cc(-c2cccc(F)c2)sc1C(=O)N[C@H]1CCCNC1 [AZD7762] (partner 0.2 µM)
# How it was run: as §1
Cell Line,relative viability ([1]; first compound 0.6325 µM),relative viability ([1]; first compound 2 µM),relative viability ([1]; first compound 0.2 µM),relative viability ([2]; first compound 0.02 µM),relative viability ([2]; first compound 0.06325 µM),relative viability ([2]; first compound 0.2 µM),relative viability ([2]; first compound 0.6325 µM),relative viability ([2]; first compound 2 µM),relative viability ([3]; first compound 0.005 µM),relative viability ([3]; first compound 0.01581 µM),relative viability ([3]; first compound 0.05 µM),relative viability ([3]; first compound 0.1581 µM),relative viability ([3]; first compound 0.5 µM),relative viability ([4]; first compound 0.01 µM),relative viability ([4]; first compound 0.03162 µM),relative viability ([4]; first compound 0.1 µM),relative viability ([4]; first compound 0.3162 µM),relative viability ([4]; first compound 1 µM)
A549,0.248,0.286,,,,,,,,,,,,,,,,
NCI-H661,0.495,0.508,0.584,0.882,0.938,0.98,0.907,0.907,0.708,0.824,0.662,0.695,0.794,,,,,
Calu-6,,,,,,,,,0.943,0.946,0.912,1.02,0.915,,,,,
NCI-H1703,,,,,,,,,0.318,0.416,0.307,0.33,0.466,0.141,0.117,0.11,0.116,0.125
SK-MES-1,0.335,0.305,0.41,1.01,0.882,0.961,0.77,0.93,,,,,,,,,,
NCI-H1299,,,,,,,,,1.08,1.08,1.04,1.01,1.05,,,,,
NCI-H520,0.45,0.267,0.508,0.705,0.646,0.607,0.783,0.679,0.348,0.526,0.577,1.27,0.406,,,,,
NCI-H358,0.197,0.0907,0.198,0.173,0.17,0.17,0.165,0.162,,,,,,0.565,0.493,0.518,0.261,0.237
NCI-H1650,0.411,0.343,0.399,0.374,0.315,0.404,0.371,0.392,0.26,0.204,0.19,0.21,0.206,,,,,
NCI-H2228,,,,0.284,0.337,0.337,0.343,0.292,0.828,1.09,1.16,1.1,0.997,,,,,
NCI-H1395,0.712,0.616,0.682,0.917,0.902,0.746,0.842,0.612,,,,,,0.374,0.375,0.397,0.396,0.327
COR-L 105,0.701,0.429,0.681,1.17,1.13,1.09,1.07,0.843,0.725,0.583,0.723,0.783,0.666,,,,,
CAL-12T,,,,1.14,1.2,1.32,1.18,1.17,0.83,,,1.2,0.54,0.668,0.567,0.617,0.536,0.601
NCI-H2023,0.199,0.0999,0.238,0.182,0.197,,0.202,0.252,0.893,0.956,0.942,1.14,1.02,,,,,
LK-2,0.205,0.146,0.24,0.259,0.228,0.284,0.276,0.245,,,,,,0.508,0.422,0.336,0.263,0.0851
SW 1573,0.497,0.104,0.526,0.899,0.841,,0.909,0.887,0.659,1.26,,1.1,0.936,,,,,
NCI-H727,0.771,0.552,0.836,,,,,,0.526,0.76,0.819,1.13,0.624,0.627,0.403,0.562,0.619,0.476
SW 900,0.444,0.421,0.433,0.472,0.464,,0.483,0.464,,,,,,0.57,0.476,0.568,0.716,0.555
NCI-H522,0.731,0.66,0.604,0.941,1.02,0.957,1.25,0.999,,,,,,0.932,0.753,0.791,0.75,0.689
NCI-H1793,0.468,0.361,0.459,1.02,0.779,0.772,0.711,0.744,,,,,,0.406,0.31,0.477,0.648,0.211
IA-LM,,,,,,,,,,0.844,0.697,0.839,0.855,,,,,
SK-LU-1,0.658,0.602,0.58,0.971,0.787,1.01,1.07,1.04,0.871,,0.998,1.42,1.23,,,,,
ABC-1,0.938,0.679,1.14,,,,,,0.348,0.292,0.262,0.313,0.387,0.889,0.807,0.763,0.852,0.334
COR-L23,0.339,0.252,0.415,0.179,0.197,0.223,0.21,0.187,0.891,1,1.08,1.16,0.925,,,,,
